Experimental data: paper PMC9132363 (Journal of Medicinal Chemistry, 2022)

Columns and labels:
[1] = target: T1, human serum albumin (HSA) (Homo sapiens, UniProt P02768); experiment: Serum albumin binding by fluorescence quenching; details: HSA 2 μM, λex 280 nm, λem 337 nm
Experimental: (§6) After each addition, the mixture was incubated at rt for 5 min, and then, the emission fluorescence spectra of HAS (λ = 280 nm) were measured using a Fluorometer Max-4P (Horiba Jobin Yvon). The data obtained were further processed using the Stern–Volmer and Scatchard models in GraphPad Prism 8.0 software.

[2] = system: control lymphoblasts; experiment: NRF2 pathway in control lymphoblasts; type: cell-based, human; details: 20 μM, 24 h
From the text: (§1) Peripheral blood samples of all the individuals enrolled in this study were collected after written informed consent of the patients or their relatives (demographic information is presented in Table 9) to establish the lymphoblastoid cell lines (LCLs), by infecting peripheral blood lymphocytes with the Epstein–Barr virus (EBV), as previously described.[68] Participants or their relatives gave written informed consent. This study was approved by the Hospital Doce de Octubre and the Spanish Council of Higher Research Institutional Review Boards. All patients were diagnosed by applying the revised El Escorial criteria.[69] […] Genetic testing for SOD1, TARDBP, FUS, and C9ORF72 was performed in all cases.
(§2) LCLs were grown in suspensions in T flasks, in an RPMI-1640 medium containing 2 mM L-glutamine, 100 μg/mL streptomycin/penicillin, and 10% (v/v) fetal bovine serum (FBS) and maintained in a humidified 5% CO2 incubator at 37 °C.
(§3) Whole cell lysates were prepared in RIPA-buffer (25 mM Tris-HCl, pH 7.6, 150 mM NaCl, 1 mM EGTA, 1% Igepal, 1% sodium deoxycholate, 0.1% SDS, 1 mM PSMF, 1 mM Na3VO4, 1 mM NaF, 1 μg/mL aprotinin, 1 μg/mL leupeptin, and 1 μg/mL pepstatin). […] Immunoblots were analyzed as described previously.[48] […]
(§4) Total RNA extraction, reverse transcription, and quantitative polymerase chain reaction (PCR) were done as detailed in previous articles.[72] […]

[3] = system: TDP-43 in lymphoblasts from ALS patients; experiment: TDP-43 phosphorylation and expression in lymphoblasts (immunoblot); type: cell-based, human; details: 20 µM, 24 hours
Experimental: Figure S1. Lack of effect of compound 1d against aberrant TDP-43 phosphorylation in sporadic ALS and […]
Representative immunoblot showing the phosphorylation status of TDP-43 in immortalized lymphocytes from control and sporadic ALS individuals. Cells were seeded at an initial density of 1 x 106 x ml-1 in the absence or presence of compound 1d (20 µM). 24 hours after compound addition, cells were harvested and processed for Western blotting analysis. The plot in the left panel (a) represents the quantification of the bands of 43 KD of pTDP-43 normalized by total-TDP-43. The densitometric analyses represent the mean ± SEM of different observations carried […]
43 expression (b) in lymphoblasts from ALS patients.
(1 picture or pasted object on this page, not shown here)

[4] = target: T1, human serum albumin (HSA); experiment: biochemical
Experimental: as §6

[5] = system: Keap1+/+ MEFs; experiment: qRT-PCR of NRF2 target genes in wild-type MEFs; type: cell-based, mouse; details: 20 μM, 4, 8 and 24 h
Experimental: Human embryonic kidney (HEK) 293T cells were grown in Dulbecco’s modified Eagle’s medium (DMEM) supplemented with 10% fetal bovine serum and 80 μg/mL gentamycin. Transient transfections were performed with calcium phosphate using reagents from Sigma. The Keap1^–/– mouse embryo fibroblasts (MEFs) and their corresponding wild-type Keap1^+/+ MEFs were kindly provided by Dr. Ken Itoh (Department of Stress Response Science, Center for Advanced Medical Science, Hirosaki University, Japan). MEFs were grown in DMEM supplemented with 10% fetal bovine serum, 1% penicillin/streptomycin, and 2 mm L-glutamine. SH-SY5Y cells were grown in DMEM and Ham’s F12 supplemented with 10% fetal bovine serum (FBS) and 1% penicillin/streptomycin. The medium was changed to serum-free DMEM without antibiotics 16 h before treatments. DMF (cat. no. 242926, Sigma-Aldrich) was used at 20 μM for 16 h.
Total RNA extraction, reverse transcription, and quantitative polymerase chain reaction (PCR) were done as detailed in previous articles.[72] Primer sequences are shown in Supporting Information Table S5. Data analysis was based on the ΔΔCT method with normalization of the raw data to housekeeping genes (Applied Biosystems). All PCRs were performed in triplicates.

[6] = target: GSK-3β (Homo sapiens, UniProt P49841); experiment: GSK-3β kinase inhibition; type: biochemical
Chain of GSK-3β (P49841 whole entry, species assumed): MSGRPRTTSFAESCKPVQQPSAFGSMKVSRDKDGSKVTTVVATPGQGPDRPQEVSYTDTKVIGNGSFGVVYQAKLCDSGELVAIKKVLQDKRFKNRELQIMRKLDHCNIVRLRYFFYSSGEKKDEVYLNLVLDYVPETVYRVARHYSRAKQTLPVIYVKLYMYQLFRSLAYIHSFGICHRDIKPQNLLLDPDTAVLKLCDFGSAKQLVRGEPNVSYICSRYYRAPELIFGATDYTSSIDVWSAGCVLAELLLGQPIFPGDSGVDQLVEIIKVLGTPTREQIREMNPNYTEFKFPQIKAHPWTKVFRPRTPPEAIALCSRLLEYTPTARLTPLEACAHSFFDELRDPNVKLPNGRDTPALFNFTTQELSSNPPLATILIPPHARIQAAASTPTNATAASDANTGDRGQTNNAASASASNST

[7] = target: ROCK-II (ROKa) (Rattus norvegicus, UniProt Q62868); experiment: ROCK inhibition studies (33P-ATP, Long S6 substrate peptide); type: biochemical
Chain of ROCK-II (ROKa) (Q62868 2-543 limits assumed): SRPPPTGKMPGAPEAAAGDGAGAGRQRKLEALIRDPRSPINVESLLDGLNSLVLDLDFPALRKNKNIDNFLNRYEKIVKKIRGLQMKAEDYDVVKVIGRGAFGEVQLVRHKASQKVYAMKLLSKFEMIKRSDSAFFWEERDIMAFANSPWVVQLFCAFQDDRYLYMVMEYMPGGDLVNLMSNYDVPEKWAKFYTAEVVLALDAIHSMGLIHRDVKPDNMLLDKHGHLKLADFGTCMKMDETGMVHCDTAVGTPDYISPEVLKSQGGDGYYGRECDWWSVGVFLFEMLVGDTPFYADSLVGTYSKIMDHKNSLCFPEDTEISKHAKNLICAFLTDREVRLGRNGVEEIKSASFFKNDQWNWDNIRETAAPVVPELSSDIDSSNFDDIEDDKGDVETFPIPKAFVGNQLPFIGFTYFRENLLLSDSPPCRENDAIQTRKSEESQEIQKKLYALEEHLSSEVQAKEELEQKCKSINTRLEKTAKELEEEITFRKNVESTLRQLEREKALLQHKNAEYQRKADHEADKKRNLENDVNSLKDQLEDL
Experimental: ROCK-II (ROKa) (5–20 mU diluted in 50 mM Tris pH 7.5, 0.1 mM EGTA, 0.1% 2-mercaptoethanol, and 1 mg/mL BSA) was assayed against the Long S6 substrate peptide ([…]) in a final volume of 25.5 μL containing 50 mM Tris pH 7.5, 0.1 mM EGTA, 30 μM Long S6 substrate peptide, 10 mM magnesium acetate, and 0.02 mM [33P-g-ATP] (50–1000 cpm/pmol) and incubated for 30 min at room temperature. Assays were stopped by addition of 5 μL of 0.5 M (3%) orthophosphoric acid and then harvested onto P81 Unifilter plates with a wash buffer of 50 mM orthophosphoric acid.

[8] = target: NRF2–KEAP1 protein–protein interaction (Homo sapiens, UniProt Q14145); experiment: Fluorescence polarization (FP) assay; type: binding
Chain of NRF2–KEAP1 protein–protein interaction (Q14145 whole entry): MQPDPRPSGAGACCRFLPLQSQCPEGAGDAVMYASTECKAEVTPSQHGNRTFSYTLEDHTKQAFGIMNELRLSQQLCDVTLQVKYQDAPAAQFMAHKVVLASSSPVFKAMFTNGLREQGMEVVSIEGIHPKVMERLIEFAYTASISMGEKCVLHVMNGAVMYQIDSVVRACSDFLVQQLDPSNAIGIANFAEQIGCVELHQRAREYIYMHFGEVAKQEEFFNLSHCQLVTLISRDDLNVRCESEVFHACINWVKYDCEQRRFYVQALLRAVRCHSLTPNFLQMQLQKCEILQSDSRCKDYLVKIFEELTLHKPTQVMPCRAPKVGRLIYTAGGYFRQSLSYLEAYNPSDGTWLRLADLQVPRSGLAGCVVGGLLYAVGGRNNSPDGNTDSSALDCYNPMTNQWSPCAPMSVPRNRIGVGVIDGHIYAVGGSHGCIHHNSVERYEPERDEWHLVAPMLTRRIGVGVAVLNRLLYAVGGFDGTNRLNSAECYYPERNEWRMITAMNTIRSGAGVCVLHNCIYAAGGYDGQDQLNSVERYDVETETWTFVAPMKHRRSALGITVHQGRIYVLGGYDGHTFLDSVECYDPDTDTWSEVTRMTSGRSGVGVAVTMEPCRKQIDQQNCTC

[9] = MTT viability assay; type: cell-based, human; details: human, HEK293T cells, HEK293T, 16 h, read-out: Cell viability (MTT)
Experimental: (§5) HEK293T cells were plated in 24-well culture plates (75,000 cells/well) and incubated in a CO2 incubator. The next day, treatment was given according to the experimental requirement. Sixteen hours later, 50 μL of MTT solutions from the stock (5 mg/mL) was added, and cells were incubated in a CO2 incubator in the dark for 2 h. The medium was removed, and formazan crystals formed by the cells were dissolved using 500 μL of DMSO followed by transfer in 96-well plates. The absorbance was read at a 570 nm wavelength on a multiwell plate reader.[70]

[10] = system: HEK293T cells; experiment: MTT viability assay; type: cell-based, human; details: 20 µM, Table S3
Experimental: as §5

[11] = target: KEAP1 (Homo sapiens, UniProt Q14145); experiment: Differential scanning fluorimetry (DSF) assay; type: binding; details: 100 μM; difference from KEAP1 alone (Ti 61.3 °C)
Chain of KEAP1 (Q14145 whole entry): as above

[12] = system: sALS lymphoblasts; experiment: NRF2 pathway in sALS lymphoblasts; type: cell-based, human; details: 20 μM, 24 h, vs untreated sALS lymphoblasts
From the text: as §1, §2, §3, §4

T1 sequence (P02768 25-609): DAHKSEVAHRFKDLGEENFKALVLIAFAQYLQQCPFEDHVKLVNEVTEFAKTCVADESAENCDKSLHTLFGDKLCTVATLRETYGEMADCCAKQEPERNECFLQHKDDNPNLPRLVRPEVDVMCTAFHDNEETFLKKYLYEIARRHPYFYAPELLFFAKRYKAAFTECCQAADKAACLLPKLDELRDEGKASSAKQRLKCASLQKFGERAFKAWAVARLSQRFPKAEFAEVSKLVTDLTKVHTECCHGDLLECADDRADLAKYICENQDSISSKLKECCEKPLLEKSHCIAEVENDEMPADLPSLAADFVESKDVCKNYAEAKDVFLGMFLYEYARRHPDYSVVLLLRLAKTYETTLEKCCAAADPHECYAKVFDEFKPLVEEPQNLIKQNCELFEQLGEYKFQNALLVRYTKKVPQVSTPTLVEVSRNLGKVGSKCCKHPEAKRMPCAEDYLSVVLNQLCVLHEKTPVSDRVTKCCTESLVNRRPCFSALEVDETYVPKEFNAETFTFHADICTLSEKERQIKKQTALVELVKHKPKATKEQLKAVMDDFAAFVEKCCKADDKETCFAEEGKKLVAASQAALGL

O=C(CCc1ccc(O)c(O)c1)N1CCCN(S(=O)(=O)c2cccc3cnccc23)CC1 [Compound 1d, 3-(3,4-Dihydroxyphenyl)-1-(4-(isoquinolin-5-ylsulfonyl)-1,4-diazepan-1-yl)propan-1-one]
Stern–Volmer quenching constant KSV [1]: 1.68 × 10^5 L mol^–1
NEF2L2 mRNA levels [2]: did not produce changes
levels of the NRF2 protein [2]: significantly increased
ability to reduce TDP-43 expression [3]: negative results
ability to reduce aberrant TDP-43 phosphorylation [3]: negative results
Kd [4]: 1260 nM
mRNA levels of HMOX1 and NQO1 [5]: increased the mRNA levels
activity as an inhibitor of the kinase GSK-3β [6]: negative results
remaining activity at 10 µM ([7]; 0.5 h, 10 microM, supplementary CSV, read-out: ROCK2 activity @ 10microM): 14.6 ± 4.1%
IC50 ([7]; Table 3, read-out: ROCK2 inhibition IC50): 730 nM
ROCK2 inhibition potency compared with fasudil ([7]; in words): potency similar to the reference compound
inhibition at 100 µM ([8]; 100 μM, read-out: FP % inhibition (± S.E.M.)): < 10%
inhibition of the NRF2–KEAP1 interaction ([8]; FP and DSF, 100 μM or lower concentrations): not able to inhibit
viability at 16 h, 20 µM ([9]; 20 μM): 100 ± 1.02%
viability at 16 h, 60 µM ([9]; 60 μM): 103.7 ± 0.837%
MTT (%) [10]: < 20%
ΔTi (± S.E.M.) [11]: +0.2 (± 0.1) °C
NRF2 and activity of its signaling pathway [12]: did not produce a significant increase
